Assay results as given in patent US12527801B2, “Cell activator of animal cell” (Vitamin C60 BioResearch Corporation, priority 2019, dated 2026).

Key:
[1] = tested on: Normal human epidermal keratinocytes; test: Action of activating epidermal cells (MTT reduction); format: cell-based; conditions: for Index (%) Mean ± S.D.: 48 h, untreated cells = 100
Description: Normal human epidermal keratinocytes were seeded on 96-well plates at the density of 5.0×10^3 cells/well using a HuMedia KG2 medium (KG2). 24 hours after seeding, the above-mentioned medium was replaced with a HuMedia KB2 medium (KB2) comprising the test sample. AOH and AHX (2-azahypoxanthine) were used as test samples, KG2 as a positive control (P. C.) for the cell activating action was treated instead of the test sample, and cells which were not treated with the samples were used as a negative control. After culturing for 48 hours, the above-mentioned medium was replaced with KB2 comprising 0.2 mg/mL of MTT to perform culturing for 1 hour. After removing the medium, the absorbance at 550 nm and 650 nm of the cell lysate in which 2-propanol was added to lyse the cells was measured. The amount of MTT reduced to blue formazan was obtained by subtracting the absorbance at 650 nm, which was derived from the cell turbidity, from the absorbance at 550 nm. The action of activating epidermal keratinocytes was shown as Index (%), which is a percentage of the absorbance of the cells, which was treated with the test samples, to the absorbance of the cells, which was not treated with the samples (negative control), with the amount of MTT reduced as an index.

Human patch test = conditions: in vivo
[2] = In vitro phototoxicity test (OECD TG432); format: cell-based
[3] = tested on: Normal human epidermal keratinocytes; test: Microarray test of gene expression (DNA Chip Genopal); format: cell-based; conditions: for ATP5F1 (internal standard) gene expression, Average / CDH1 (E-cadherin) gene expression, Average / CLDN1 (claudin 1) gene expression, Average / DSC1 (desmocollin 1) gene expression, Average / DSG1 (desmoglein 1) gene expression, Average / EDN1 (endothelin 1) gene expression, Average / FN1 (fibronectin) gene expression, Average / GUSB (internal standard) gene expression, Average / HAS3 (hyaluronan synthase) gene expression, Average / IVL (involucrin) gene expression, Average / KLK5 (kallikrein 5) gene expression, Average / KLK7 (kallikrein 7) gene expression, Average / KRT1 (keratin 1) gene expression, Average / KRT10 (keratin 10) gene expression, Average / PPIA (Cyclophilin) (internal standard) gene expression, Average / PTGES (prostaglandin E synthetase) gene expression, Average / PTGS2 (COX-2) (cyclooxygenase 2) gene expression, Average / RPLPO (internal standard) gene expression, Average / SPINK5 (LEKTI1) (serine protease inhibitor) gene expression, Average / SPRR1B (cornified envelope constituent protein) gene expression, Average / TGM1 (transglutaminase 1) gene expression, Average: 24 h, ratio, control as 1
Description: Normal human epidermal keratinocytes were seeded on 6-well plates at the cell density of 1.5×10^5 cells/well using a HuMedia-KG2 medium. After culturing for 24 hours, the medium was replaced with 3 mL of a HuMedia-KB2 medium comprising AOH at the concentration of 0, 30, 100, and 300 μg/mL. After the replacement, culturing was performed for 24 hours, and the cells were immersed in a QIAzol reagent and lysed. RNA purified using an miRNeasy Mini Kit (QIAGEN) was recovered from the lysate, and a DNA microarray was performed using an mRNA expression analysis chip (DNA Chip Genopal (registered trademark)). The obtained results were analyzed to represent the expression of various genes as a ratio with a correction value of the control as 1, and a significant difference test was performed using the Student's t-test (significance level p of 5%).
In Table 2, it can be determined that when the value is larger than 1, gene expression is increased, and when the p value is smaller than 0.05, there is a significant change with respect to the control (indicated by * in the table). AOH treatment varied the expression of some genes in a concentration-dependent manner.

[4] = In vitro skin sensitization test (DPRA method) (OECD TG442C); format: biochemical
[5] = Mutagenicity test (Ames test) (OECD TG471); format: cell-based
[6] = AOH treatment, concentration not given

- gene expression of cyclooxygenase (PTGS2), change in words [3, 6]: significant decrease
- gene expression of prostaglandin E synthetase (PTGES), change in words [3, 6]: significant decrease
- gene expression of transglutaminase 1 (TGM1), change in words [3, 6]: significant increase
SMILES: O=c1[nH]c2nn[nH]c(=O)c2[nH]1 [AOH, 3H-imidazo[4,5-d][1,2,3]triazine-4,6(5H,7H)-dione]
- Index (%) Mean ± S.D. ([1]; 3.9 μg/mL): 105.7 ± 4.5%
- Index (%) Mean ± S.D. ([1]; 7.8 μg/mL): 108.4 ± 4%
- Index (%) Mean ± S.D. ([1]; 15.6 μg/mL): 108.7 ± 5.6%
- Index (%) Mean ± S.D. ([1]; 31.3 μg/mL): 109.7 ± 5.2%
- Index (%) Mean ± S.D. ([1]; 62.5 μg/mL): 102.3 ± 2.8%
- Index (%) Mean ± S.D. ([1]; 125 μg/mL): 98.6 ± 0.7%
- Index (%) Mean ± S.D. ([1]; 250 μg/mL): 94.2 ± 1.7%
- Index (%) Mean ± S.D. ([1]; 500 μg/mL): 91.9 ± 0.9%
- cytotoxicity compared ([1]; AOH versus AHX): lower cytotoxicity than AHX
- change in Index ([1]; concentrations of 7.8 to 31.3 μg/mL): significant increase in Index
- proliferative effect / cell activating action ([1]; epidermal keratinocytes): has the cell activating action
- toxicity in human patch test (Human patch test): toxicity was not recognized
- toxicity in in vitro phototoxicity test [2]: toxicity was not recognized
- ATP5F1 (internal standard) gene expression, Average ([3]; 30 μg/mL): 1.00
- CDH1 (E-cadherin) gene expression, Average ([3]; 30 μg/mL): 1.11
- CLDN1 (claudin 1) gene expression, Average ([3]; 30 μg/mL): 1.19
- DSC1 (desmocollin 1) gene expression, Average ([3]; 30 μg/mL): 1.26
- DSG1 (desmoglein 1) gene expression, Average ([3]; 30 μg/mL): 1.09
- EDN1 (endothelin 1) gene expression, Average ([3]; 30 μg/mL): 1.24
- FN1 (fibronectin) gene expression, Average ([3]; 30 μg/mL): 1.12
- GUSB (internal standard) gene expression, Average ([3]; 30 μg/mL): 0.97
- HAS3 (hyaluronan synthase) gene expression, Average ([3]; 30 μg/mL): 1.09
- IVL (involucrin) gene expression, Average ([3]; 30 μg/mL): 1.35
- KLK5 (kallikrein 5) gene expression, Average ([3]; 30 μg/mL): 1.11
- KLK7 (kallikrein 7) gene expression, Average ([3]; 30 μg/mL): 1.12
- KRT1 (keratin 1) gene expression, Average ([3]; 30 μg/mL): 1.46
- KRT10 (keratin 10) gene expression, Average ([3]; 30 μg/mL): 1.19
- PPIA (Cyclophilin) (internal standard) gene expression, Average ([3]; 30 μg/mL): 0.98
- PTGES (prostaglandin E synthetase) gene expression, Average ([3]; 30 μg/mL): 0.77
- PTGS2 (COX-2) (cyclooxygenase 2) gene expression, Average ([3]; 30 μg/mL): 0.90
- RPLPO (internal standard) gene expression, Average ([3]; 30 μg/mL): 1.03
- SPINK5 (LEKTI1) (serine protease inhibitor) gene expression, Average ([3]; 30 μg/mL): 1.15
- SPRR1B (cornified envelope constituent protein) gene expression, Average ([3]; 30 μg/mL): 1.27
- TGM1 (transglutaminase 1) gene expression, Average ([3]; 30 μg/mL): 1.16
- ATP5F1 (internal standard) gene expression, Average ([3]; 100 μg/mL): 1.02
- CDH1 (E-cadherin) gene expression, Average ([3]; 100 μg/mL): 1.09
- CLDN1 (claudin 1) gene expression, Average ([3]; 100 μg/mL): 1.49
- DSC1 (desmocollin 1) gene expression, Average ([3]; 100 μg/mL): 1.28
- DSG1 (desmoglein 1) gene expression, Average ([3]; 100 μg/mL): 1.13
- EDN1 (endothelin 1) gene expression, Average ([3]; 100 μg/mL): 1.39
- FN1 (fibronectin) gene expression, Average ([3]; 100 μg/mL): 1.15
- GUSB (internal standard) gene expression, Average ([3]; 100 μg/mL): 1.00
- HAS3 (hyaluronan synthase) gene expression, Average ([3]; 100 μg/mL): 1.27
- IVL (involucrin) gene expression, Average ([3]; 100 μg/mL): 1.49
- KLK5 (kallikrein 5) gene expression, Average ([3]; 100 μg/mL): 1.16
- KLK7 (kallikrein 7) gene expression, Average ([3]; 100 μg/mL): 1.24
- KRT1 (keratin 1) gene expression, Average ([3]; 100 μg/mL): 1.60
- KRT10 (keratin 10) gene expression, Average ([3]; 100 μg/mL): 1.33
- PPIA (Cyclophilin) (internal standard) gene expression, Average ([3]; 100 μg/mL): 0.96
- PTGES (prostaglandin E synthetase) gene expression, Average ([3]; 100 μg/mL): 0.79
- PTGS2 (COX-2) (cyclooxygenase 2) gene expression, Average ([3]; 100 μg/mL): 0.93
- RPLPO (internal standard) gene expression, Average ([3]; 100 μg/mL): 1.06
- SPINK5 (LEKTI1) (serine protease inhibitor) gene expression, Average ([3]; 100 μg/mL): 1.28
- SPRR1B (cornified envelope constituent protein) gene expression, Average ([3]; 100 μg/mL): 1.42
- TGM1 (transglutaminase 1) gene expression, Average ([3]; 100 μg/mL): 1.29
- ATP5F1 (internal standard) gene expression, Average ([3]; 300 μg/mL): 1.01
- CDH1 (E-cadherin) gene expression, Average ([3]; 300 μg/mL): 1.16
- CLDN1 (claudin 1) gene expression, Average ([3]; 300 μg/mL): 1.43
- DSC1 (desmocollin 1) gene expression, Average ([3]; 300 μg/mL): 1.59
- DSG1 (desmoglein 1) gene expression, Average ([3]; 300 μg/mL): 1.15
- EDN1 (endothelin 1) gene expression, Average ([3]; 300 μg/mL): 1.75
- FN1 (fibronectin) gene expression, Average ([3]; 300 μg/mL): 1.22
- GUSB (internal standard) gene expression, Average ([3]; 300 μg/mL): 0.97
- HAS3 (hyaluronan synthase) gene expression, Average ([3]; 300 μg/mL): 1.60
- IVL (involucrin) gene expression, Average ([3]; 300 μg/mL): 1.75
- KLK5 (kallikrein 5) gene expression, Average ([3]; 300 μg/mL): 1.24
- KLK7 (kallikrein 7) gene expression, Average ([3]; 300 μg/mL): 1.17
- KRT1 (keratin 1) gene expression, Average ([3]; 300 μg/mL): 2.07
- KRT10 (keratin 10) gene expression, Average ([3]; 300 μg/mL): 1.44
- PPIA (Cyclophilin) (internal standard) gene expression, Average ([3]; 300 μg/mL): 0.99
- PTGES (prostaglandin E synthetase) gene expression, Average ([3]; 300 μg/mL): 0.56
- PTGS2 (COX-2) (cyclooxygenase 2) gene expression, Average ([3]; 300 μg/mL): 0.79
- RPLPO (internal standard) gene expression, Average ([3]; 300 μg/mL): 1.08
- SPINK5 (LEKTI1) (serine protease inhibitor) gene expression, Average ([3]; 300 μg/mL): 1.38
- SPRR1B (cornified envelope constituent protein) gene expression, Average ([3]; 300 μg/mL): 1.60
- TGM1 (transglutaminase 1) gene expression, Average ([3]; 300 μg/mL): 1.57
- gene expression of E-cadherin (CDH1), change in words [3, 6]: significant increase
- gene expression of SPRR1B, change in words [3, 6]: significant increase
- gene expression of claudin 1 (CLDN1), change in words [3, 6]: significant increase
- gene expression of desmocollin 1 (DSC1), change in words [3, 6]: significant increase
- gene expression of desmoglein 1 (DSG1), change in words [3, 6]: significant increase
- gene expression of endothelin 1 (EDN1), change in words [3, 6]: significant increase
- gene expression of fibronectin (FN1), change in words [3, 6]: slight increase
- gene expression of hyaluronan synthase (HAS3), change in words [3, 6]: significant increase
- gene expression of involucrin (IVL), change in words [3, 6]: significant increase
- gene expression of kallikrein 5 (KLK5), change in words [3, 6]: significant increase
- gene expression of kallikrein 7 (KLK7), change in words [3, 6]: significant increase
- gene expression of keratin 1 (KRT1), change in words [3, 6]: significant increase
- gene expression of keratin 10 (KRT10), change in words [3, 6]: significant increase
- gene expression of serine protease inhibitor (SPIMK5), change in words [3, 6]: significant increase
- toxicity in in vitro skin sensitization test (DPRA method) [4]: toxicity was not recognized
- toxicity in mutagenicity test (Ames test) [5]: toxicity was not recognized
